Measurements as given in US8952024B2, “Herbicidal pyrimidone derivatives” (E I du Pont de Nemours and Company, priority 2009, dated 2015).

Tests used:
Type in all cases: in vivo
[1] = test system: barnyardgrass (Echinochloa crus-galli); assay: Test A pre-/postemergence plant response
In short: (§1)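 Each species was treated preemergence via directed soil spray and postemergence at the one- to two-leaf stage, with compounds formulated in a non-phytotoxic solvent plus surfactant. Visual injury relative to untreated controls was rated after about ten days on a 0–100 scale.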

[2] = test system: corn (Zea mays); assay: Test A pre-/postemergence plant response
In short: as §1

[3] = test system: giant foxtail (Setaria faberii); assay: Test A pre-/postemergence plant response
In short: as §1

[4] = test system: large crabgrass (Digitaria sanguinalis); assay: Test A pre-/postemergence plant response
In short: as §1

[5] = test system: morningglory (Ipomoea spp.); assay: Test A pre-/postemergence plant response
In short: as §1

[6] = test system: pigweed (Amaranthus retroflexus); assay: Test A pre-/postemergence plant response
In short: as §1

[7] = test system: velvetleaf (Abutilon theophrasti); assay: Test A pre-/postemergence plant response
In short: as §1

[8] = test system: wheat (Triticum aestivum); assay: Test A pre-/postemergence plant response
In short: as §1

[9] = test system: winter barley (Hordeum vulgare); assay: Test B postemergence plant response
In short: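 Plants grown in peat/vermiculite medium were sprayed postemergence at 2–18 cm height (1- to 4-leaf stage). After 13–15 days in the greenhouse, response was rated visually against untreated controls on a 0–100 scale (0 no effect, 100 complete control).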

[10] = test system: barnyardgrass (Echinochloa crus-galli); assay: Test B flooded paddy test; conditions: for Plant response rating, Flood, Barnyardgrass: 250 g ai/ha, flooded paddy test, visual rating on 0 to 100 scale (0 no effect, 100 complete control) after 13 to 15 days; for Plant response rating, Barnyardgrass: Flood (flooded paddy test), 13 to 15 days
In short: (§2)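 Rice, umbrella sedge, ducksalad and barnyardgrass were grown to the 2-leaf stage, flooded to 3 cm, and compound was applied directly to the paddy water, with that depth kept throughout. After 13 to 15 days in the greenhouse, plants were visually rated against controls on a 0 (no effect) to 100 (complete control) scale.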

[11] = test system: ducksalad (Heteranthera limosa); assay: Test B flooded paddy test; conditions: for Plant response rating, Flood, Ducksalad: 250 g ai/ha, flooded paddy test, visual rating on 0 to 100 scale (0 no effect, 100 complete control) after 13 to 15 days; for Plant response rating, Ducksalad: Flood (flooded paddy test), 13 to 15 days
In short: as §2

[12] = test system: rice (Oryza sativa); assay: Test B flooded paddy test; conditions: for Plant response rating, Flood, Rice: 250 g ai/ha, flooded paddy test, visual rating on 0 to 100 scale (0 no effect, 100 complete control) after 13 to 15 days; for Plant response rating, Rice: Flood (flooded paddy test), 13 to 15 days
In short: as §2

[13] = test system: umbrella sedge (Cyperus difformis); assay: Test B flooded paddy test; conditions: for Plant response rating, Flood, Sedge, Umbrella: 250 g ai/ha, flooded paddy test, visual rating on 0 to 100 scale (0 no effect, 100 complete control) after 13 to 15 days; for Plant response rating, Sedge, Umbrella: Flood (flooded paddy test), 13 to 15 days
In short: as §2

[14] = Postemergence, 125 g ai/ha, visual injury, 0 to 100 scale (0 no effect, 100 complete control), approx. ten days
[15] = Postemergence, 500 g ai/ha, 0 to 100 scale, 0 = no effect, 100 = complete control, approx. ten days
[16] = Preemergence, 125 g ai/ha, 0 to 100 scale, 0 = no effect, 100 = complete control
[17] = Preemergence, 500 g ai/ha, visual injury, 0 to 100 scale (0 no effect, 100 complete control), approx. ten days
[18] = Postemergence, 62 g ai/ha, scale 0 (no effect) to 100 (complete control), 13 to 15 days
[19] = Postemergence, 125 g ai/ha, visual rating after 13 to 15 days, scale 0 (no effect) to 100 (complete control)
[20] = 62 g ai/ha, scale 0 to 100, 0 is no effect, 100 is complete control
[21] = 31 g ai/ha, scale of 0 to 100 where 0 is no effect and 100 is complete control
[22] = 62 g ai/ha, scale of 0 to 100 where 0 is no effect and 100 is complete control
[23] = 125 g ai/ha, scale 0 to 100, 0 is no effect, 100 is complete control

In the case of `CCCCc1ncc(C(=O)C2=C(O)CCCC2=O)c(=O)n1-c1ccccc1` [Compound 42], the “Barnyardgrass plant response rating” value [1, 14] is reported as 60, the “Plant response rating, Barnyardgrass” value [1, 15] is reported as 90 and the “Plant response rating, Barnyardgrass” value [1, 16] is reported as 0. For the same molecule, the “Plant response rating, Barnyardgrass” value [1, 17] was 60, the “Corn plant response rating” value [2, 14] was 0 and the “Plant response rating, Corn” value [2, 15] was 30. For the same molecule, the “Plant response rating, Corn” value [2, 16] was 0, the “Plant response rating, Corn” value [2, 17] was 0 and the “Foxtail, Giant plant response rating” value [3, 14] was 40. The “Plant response rating, Foxtail, Giant” value [3, 15] was 70, the “Plant response rating, Foxtail, Giant” value [3, 16] was 10 and the “Plant response rating, Foxtail, Giant” value [3, 17] was 40. The “Crabgrass, Large plant response rating” value [4, 14] was 60, the “Plant response rating, Crabgrass, Large” value [4, 15] was 80 and the “Plant response rating, Crabgrass, Large” value [4, 16] was 40. The “Plant response rating, Crabgrass, Large” value [4, 17] was 90, the “Morningglory plant response rating” value [5, 14] was 80 and the “Plant response rating, Morningglory” value [5, 15] was 80. For the same molecule, the “Plant response rating, Morningglory” value [5, 16] was 0, the “Plant response rating, Morningglory” value [5, 17] was 50 and the “Pigweed plant response rating” value [6, 14] was 100. For the same molecule, the “Plant response rating, Pigweed” value [6, 15] was 100, the “Plant response rating, Pigweed” value [6, 16] was 90 and the “Plant response rating, Pigweed” value [6, 17] was 100. The “Velvetleaf plant response rating” value [7, 14] was 100, the “Plant response rating, Velvetleaf” value [7, 15] was 100 and the “Plant response rating, Velvetleaf” value [7, 16] was 70. The “Plant response rating, Velvetleaf” value [7, 17] was 100, the “Wheat plant response rating” value [8, 14] was 0 and the “Plant response rating, Wheat” value [8, 15] was 0. For the same molecule, the “Plant response rating, Wheat” value [8, 16] was 0, the “Plant response rating, Wheat” value [8, 17] was 0 and the “Plant response rating, Barley” value ([9]; Postemergence, 31 g ai/ha, scale 0 to 100 (0 no effect, 100 complete control)) was 0. For the same molecule, the “Plant response rating, Barley” value [9, 18] was 0, the “Plant response rating, Barley” value [9, 19] was 0 and the “Barley plant response rating” value ([9]; Postemergence, 250 g ai/ha, scale 0 to 100) was 5. For the same molecule, the “Plant response rating, Flood, Barnyardgrass” value [10] was 0, the “Plant response rating, Barnyardgrass” value [10, 20] was 0 and the “Plant response rating, Flood, Ducksalad” value [11] was 50. For the same molecule, the “Plant response rating, Ducksalad” value [11, 20] was 30, the “Plant response rating, Flood, Rice” value [12] was 20 and the “Plant response rating, Rice” value [12, 20] was 0. The “Plant response rating, Flood, Sedge, Umbrella” value [13] was 30 and the “Plant response rating, Sedge, Umbrella” value [13, 20] was 30.
`Cn1c(-c2ccccc2)ncc(C(=O)C2=C(O)CCCC2=O)c1=O` [Compound 55] was tested, and the “Barnyardgrass plant response rating” value [1, 14] was 50, the “Plant response rating, Barnyardgrass” value [1, 15] was 70 and the “Plant response rating, Barnyardgrass” value [1, 16] was 0. The “Plant response rating, Barnyardgrass” value [1, 17] was 10, the “Corn plant response rating” value [2, 14] was 0 and the “Plant response rating, Corn” value [2, 15] was 10. The “Plant response rating, Corn” value [2, 16] was 0, the “Plant response rating, Corn” value [2, 17] was 0 and the “Foxtail, Giant plant response rating” value [3, 14] was 20. The “Plant response rating, Foxtail, Giant” value [3, 15] was 60, the “Plant response rating, Foxtail, Giant” value [3, 16] was 0 and the “Plant response rating, Foxtail, Giant” value [3, 17] was 0. For the same molecule, the “Crabgrass, Large plant response rating” value [4, 14] was 70, the “Plant response rating, Crabgrass, Large” value [4, 15] was 90 and the “Plant response rating, Crabgrass, Large” value [4, 16] was 0. For the same molecule, the “Plant response rating, Crabgrass, Large” value [4, 17] was 50, the “Morningglory plant response rating” value [5, 14] was 90 and the “Plant response rating, Morningglory” value [5, 15] was 90. For the same molecule, the “Plant response rating, Morningglory” value [5, 16] was 30, the “Plant response rating, Morningglory” value [5, 17] was 60 and the “Pigweed plant response rating” value [6, 14] was 90. For the same molecule, the “Plant response rating, Pigweed” value [6, 15] was 100, the “Plant response rating, Pigweed” value [6, 16] was 50 and the “Plant response rating, Pigweed” value [6, 17] was 100. The “Velvetleaf plant response rating” value [7, 14] was 100, the “Plant response rating, Velvetleaf” value [7, 15] was 100 and the “Plant response rating, Velvetleaf” value [7, 16] was 60. For the same molecule, the “Plant response rating, Velvetleaf” value [7, 17] was 60, the “Wheat plant response rating” value [8, 14] was 0 and the “Plant response rating, Wheat” value [8, 15] was 0. The “Plant response rating, Wheat” value [8, 16] was 0, the “Plant response rating, Wheat” value [8, 17] was 0 and the “Plant response rating, Barley” value ([9]; 31 g ai/ha, postemergence, scale 0 to 100, 0 is no effect, 100 is complete control) was 0. The “Plant response rating, Barley” value [9, 18] was 0, the “Plant response rating, Barley” value [9, 19] was 0 and the “Plant response rating, Barley” value ([9]; Postemergence, 250 g ai/ha, scale 0 to 100 (0 no effect, 100 complete control)) was 0. The “Plant response rating, Flood, Barnyardgrass” value [10] was 20, the “Plant response rating, Barnyardgrass” value [10, 21] was 0 and the “Plant response rating, Barnyardgrass” value [10, 22] was 20. For the same molecule, the “Plant response rating, Barnyardgrass” value [10, 23] was 20, the “Plant response rating, Flood, Ducksalad” value [11] was 50 and the “Plant response rating, Ducksalad” value [11, 21] was 0. The “Plant response rating, Ducksalad” value [11, 22] was 0, the “Plant response rating, Ducksalad” value [11, 23] was 0 and the “Plant response rating, Flood, Rice” value [12] was 25. For the same molecule, the “Plant response rating, Rice” value [12, 21] was 0, the “Plant response rating, Rice” value [12, 22] was 10 and the “Plant response rating, Rice” value [12, 23] was 15. The “Plant response rating, Flood, Sedge, Umbrella” value [13] was 60, the “Plant response rating, Sedge, Umbrella” value [13, 21] was 0 and the “Plant response rating, Sedge, Umbrella” value [13, 22] was 30. The “Plant response rating, Sedge, Umbrella” value [13, 23] was 40.
